Data set [1] deals with T1, UDP-glucuronosyltransferase 2B17 (Homo sapiens, UniProt O75795).
T1 sequence (O75795 whole entry): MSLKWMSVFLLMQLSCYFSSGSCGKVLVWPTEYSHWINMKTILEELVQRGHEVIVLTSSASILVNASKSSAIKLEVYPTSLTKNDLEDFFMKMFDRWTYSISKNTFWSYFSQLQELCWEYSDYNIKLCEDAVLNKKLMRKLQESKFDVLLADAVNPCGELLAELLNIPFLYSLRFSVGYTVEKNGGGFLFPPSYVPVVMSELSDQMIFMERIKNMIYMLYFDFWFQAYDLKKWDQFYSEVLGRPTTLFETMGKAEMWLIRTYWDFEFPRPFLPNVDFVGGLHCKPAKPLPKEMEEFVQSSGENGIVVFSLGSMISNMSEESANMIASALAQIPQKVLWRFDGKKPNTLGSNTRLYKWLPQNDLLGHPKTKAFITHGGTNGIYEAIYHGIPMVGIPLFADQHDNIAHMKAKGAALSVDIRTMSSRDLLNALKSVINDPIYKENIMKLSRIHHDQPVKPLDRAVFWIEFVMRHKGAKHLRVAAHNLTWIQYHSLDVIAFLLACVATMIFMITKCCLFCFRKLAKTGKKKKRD
In words: Drug metabolism assessed as recombinat UGT2B17 (unknown origin) -mediated dextrophan-O-glucuronide formation. The data set is classed as ADME.

Data set [2] has as its target T2, UDP-glucuronosyltransferase 1A6 (Homo sapiens, UniProt P19224).
T2 sequence (P19224 whole entry): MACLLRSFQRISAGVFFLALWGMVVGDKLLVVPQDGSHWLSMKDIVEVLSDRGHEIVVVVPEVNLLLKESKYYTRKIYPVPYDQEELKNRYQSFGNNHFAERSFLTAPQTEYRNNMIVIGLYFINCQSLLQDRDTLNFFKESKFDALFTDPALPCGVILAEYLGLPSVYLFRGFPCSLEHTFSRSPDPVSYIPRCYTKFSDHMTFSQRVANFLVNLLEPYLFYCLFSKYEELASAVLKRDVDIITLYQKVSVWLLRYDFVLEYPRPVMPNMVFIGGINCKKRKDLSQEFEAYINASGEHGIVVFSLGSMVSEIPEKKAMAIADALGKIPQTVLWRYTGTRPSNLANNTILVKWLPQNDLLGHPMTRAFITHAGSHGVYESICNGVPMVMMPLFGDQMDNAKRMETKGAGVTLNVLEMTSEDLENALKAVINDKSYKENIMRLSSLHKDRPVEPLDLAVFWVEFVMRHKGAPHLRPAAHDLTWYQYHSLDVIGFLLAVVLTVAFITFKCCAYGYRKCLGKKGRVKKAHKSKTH
In words: Drug metabolism assessed as recombinat UGT1A6 (unknown origin) -mediated dextrophan-O-glucuronide formation. The class given is ADME.

Another data set has as its system Homo sapiens. In words: Ratio of AUC for compound to dexttomethorphan in human treated with 30 to 60 mg, po dexttomethorphan. The class given is ADME, organism-based. The settings on record: in vivo.
Data set [3] concerns Liver microsome. As to the kind of experiment: Drug metabolism in human liver microsomes assessed as 3-hydroxymorphinan formation measured as intrinsic clearance. The data set is classed as ADME.
For data set [4], the system named is Liver microsome. As to the kind of experiment: Drug metabolism in human liver microsomes assessed as dextrophan-O-glucuronide formation measured as intrinsic clearance. The class given is ADME. For orientation: Microsomes from liver hold many membrane-bound enzymes, among them those of drug oxidation.
For data set [5], the system named is Liver microsome. In words: Drug metabolism in human liver microsomes assessed as dextrophan-O-glucuronide formation measured as intrinsic clearance in presence of 2% BSA. The class given is ADME.
For data set [6], the system named is Liver microsome. As to the kind of experiment: Drug metabolism in human liver microsomes assessed as dextrophan-O-glucuronide formation measured as intrinsic unbound clearance in presence of 2% BSA. The data set is classed as ADME.
Data set [7] deals with T3, UDP-glucuronosyltransferase 2B4 (Homo sapiens, UniProt P06133).
T3 sequence (P06133 whole entry): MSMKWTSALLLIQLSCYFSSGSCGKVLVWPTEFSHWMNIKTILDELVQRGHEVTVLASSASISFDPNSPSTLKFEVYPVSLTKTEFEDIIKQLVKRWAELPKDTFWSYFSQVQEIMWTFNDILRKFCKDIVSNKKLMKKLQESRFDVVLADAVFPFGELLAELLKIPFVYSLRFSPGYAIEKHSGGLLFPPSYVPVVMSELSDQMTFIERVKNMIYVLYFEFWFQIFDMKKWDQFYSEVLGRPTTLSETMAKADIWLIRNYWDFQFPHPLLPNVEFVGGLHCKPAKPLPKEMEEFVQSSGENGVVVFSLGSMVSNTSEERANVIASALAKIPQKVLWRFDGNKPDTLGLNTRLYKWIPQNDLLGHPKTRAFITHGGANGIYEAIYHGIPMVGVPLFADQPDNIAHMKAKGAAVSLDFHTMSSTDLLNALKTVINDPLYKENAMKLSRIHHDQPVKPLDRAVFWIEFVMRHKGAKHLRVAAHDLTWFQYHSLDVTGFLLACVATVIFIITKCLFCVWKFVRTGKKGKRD
In words: Drug metabolism assessed as recombinat UGT2B4 (unknown origin) -mediated dextrophan-O-glucuronide formation. The class given is ADME.

Data set [8] deals with T4, UDP-glucuronosyltransferase 2B7 (Homo sapiens, UniProt P16662).
T4 sequence (P16662 whole entry): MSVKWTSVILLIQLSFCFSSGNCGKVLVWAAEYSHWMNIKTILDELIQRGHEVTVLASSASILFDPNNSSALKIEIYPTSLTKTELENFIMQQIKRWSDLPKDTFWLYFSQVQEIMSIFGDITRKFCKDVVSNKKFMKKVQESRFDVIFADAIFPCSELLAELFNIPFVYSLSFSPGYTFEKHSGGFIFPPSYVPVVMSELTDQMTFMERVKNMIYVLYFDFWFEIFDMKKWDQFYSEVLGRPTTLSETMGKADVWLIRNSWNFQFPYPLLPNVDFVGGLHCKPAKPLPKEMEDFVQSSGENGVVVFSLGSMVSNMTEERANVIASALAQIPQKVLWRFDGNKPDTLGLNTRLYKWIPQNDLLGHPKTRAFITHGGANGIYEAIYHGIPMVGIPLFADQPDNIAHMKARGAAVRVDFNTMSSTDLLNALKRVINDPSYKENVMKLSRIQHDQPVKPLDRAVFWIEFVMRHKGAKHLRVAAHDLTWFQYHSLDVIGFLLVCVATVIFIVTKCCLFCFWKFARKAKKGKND
As to the kind of experiment: Drug metabolism assessed as recombinat UGT2B7 (unknown origin) -mediated dextrophan-O-glucuronide formation. The class given is ADME.

Each structure is given as a SMILES string.

`CN1CC[C@@]23CCCC[C@@H]2[C@@H]1Cc1ccc(O)cc13` [DEXTRORPHAN]: the Drug metabolism entry is “metabolite_detected” in data set [1], “metabolite_not_detected” in data set [2], “metabolite_detected” in data set [7] and “metabolite_detected” in [8]. The “Ratio AUC” value with Homo sapiens is 0.61. Also, the CLH came to 0.88 µL/min/mg in the data set with Liver microsome [3], 2.9 µL/min/mg with Liver microsome [4] and 11 µL/min/mg in the data set with Liver microsome [5]. In addition, in the data set on Liver microsome [6], the CL free was 12 µL/min/mg.

The values are drawn from ChEMBL document CHEMBL3526083, “Prediction of relative in vivo metabolite exposure from in vitro data using two model drugs: dextromethorphan and omeprazole” (Drug Metab Dispos, 2012).
